The target of one experiment is CDC7/DBF4 (Homo sapiens, UniProt O00311). As to the kind of experiment: Kinase profiling. It is filed as biochemical.
For a further experiment, the target named is ERK1 (Homo sapiens, UniProt P27361). As to the kind of experiment: Kinase profiling. Format: biochemical. As to conditions: 10 semi-logarithmic dilutions from 50 μM, singlicate.
The target in a further experiment is HIPK2 (Homo sapiens, UniProt Q9H2X6). In words: Kinase profiling. Format: biochemical.
Experiment [1] deals with MCF10 non-transformed mammary epithelial cell line. As to the kind of experiment: Proliferation assay: determination of GI50. It is filed as cell-based, human. To be noted: Table 3, 48 h, n = 2 independent experiments. As to the method:
(§1) The following human tumor cell lines, all Retinoblastoma (Rb)-proficient, were used in this study: MDA-MB231 (breast cancer), MDA-MB453 (breast cancer), U87MG (glioblastoma) and H460 (lung cancer). MDA-MB468 (breast cancer) and SW1783 (glioblastoma) Rb-deficient cells were also included in the study, as well as the MCF10A non-transformed mammary epithelial cell line. Tumor cell lines were maintained in DMEM or RPMI-1640 medium, depending on the cell line, supplemented with 10% FBS. MCF10A cells were grown in complete mammary epithelial growth medium (MEGM, Lonza). Cell lines were authenticated by short tandem repeat (STR) loci profiling with the GenePrint® 10 System (Promega).
(§2) All human cancer cell lines (Table 2) were obtained from the American Type Culture Collection, and were maintained in DMEM (Hyclone) or RPMI-1640 medium (Sigma) supplemented with 10% fetal bovine serum (Sigma). Non-transformed MCF10 cell line was maintained in MEGM Mammary Epithelial Cell Growth Medium (Lonza). Immortalized mouse embryonic fibroblasts (MEFs) were maintained in DMEM with 10% fetal bovine serum.
(§3) 48 h later cells were fixed with PFA 4% for 15 minutes, stained with 10 μg/ml Hoechst 33342 (Molecular Probes, Thermo Fisher) for 30 minutes and washed twice with PBS. Cells were imaged in a high content screening system (Opera Phoenix™, Perkin Elmer) using a 20× dry objective (30 fields/well). Cell counts were determined by the Opera software (Perkin Elmer) and data were further processed with SPSS software. GI50 was calculated by estimating the absolute IC50 using dose-response inhibition tool in Prism6 (Graphpad Software Inc.).

Experiment [2] concerns MDA-MB-231 breast carcinoma cell line. In words: Proliferation assay: determination of GI50. It is filed as cell-based, human. To be noted: Table 3, 48 h, n = 3 independent experiments, read-out: GI50 MDA-MB231. As to the method: as §1, §2, §3
Experiment [3] deals with H460 lung carcinoma cell line. As to the kind of experiment: Proliferation assay: determination of GI50. Format: cell-based, human. To be noted: Table 3, 48 h, n = 2 independent experiments. As to the method:
as §1, §2, §3

In experiment [4] the test system is U87MG glioblastoma cell line. As to the kind of experiment: Proliferation assay: determination of GI50. Format: cell-based, human. To be noted: Table 3, 48 h, n = 3 independent experiments, read-out: GI50 U87MG. As to the method: as §1, §2, §3
Another experiment concerns the target CDK19/CycC (Homo sapiens, UniProt Q9BWU1). As to the kind of experiment: Kinase profiling. Format: biochemical. To be noted: 10 semi-logarithmic dilutions from 50 μM, singlicate.
Another experiment addresses CDK12wt/CycK (Homo sapiens, UniProt Q9NYV4). In words: Kinase profiling. As to conditions: 10 semi-logarithmic dilutions from 50 μM, singlicate. It is filed as biochemical.
Another experiment deals with CDK8/CycC (Homo sapiens, UniProt P49336). In words: Kinase profiling. It is filed as biochemical. To be noted: 10 semi-logarithmic dilutions from 50 μM, singlicate.
The next experiment addresses CDK3/CycC (Homo sapiens, UniProt Q00526). As to the kind of experiment: Kinase profiling. To be noted: 10 semi-logarithmic dilutions from 50 μM, singlicate. Format: biochemical.
A further experiment concerns the target CDK3/CycE1 (Homo sapiens, UniProt Q00526). In words: Kinase profiling. It is filed as biochemical. As to conditions: 10 semi-logarithmic dilutions from 50 μM, singlicate.
A further experiment has as its target T1, AKT1 aa1-480 (Homo sapiens, UniProt P31749).
T1 construct: AKT1 aa1-480
As to the kind of experiment: Kinase profiling. Format: biochemical. To be noted: 10 semi-logarithmic dilutions from 50 μM, singlicate.

The target in a further experiment is DYRK1A (Homo sapiens, UniProt Q13627). In words: Kinase profiling. Format: biochemical. To be noted: 10 semi-logarithmic dilutions from 50 μM, singlicate.
The target of another experiment is T2, DYRK2 (Homo sapiens, UniProt Q92630).
T2 sequence (Q92630 1-601): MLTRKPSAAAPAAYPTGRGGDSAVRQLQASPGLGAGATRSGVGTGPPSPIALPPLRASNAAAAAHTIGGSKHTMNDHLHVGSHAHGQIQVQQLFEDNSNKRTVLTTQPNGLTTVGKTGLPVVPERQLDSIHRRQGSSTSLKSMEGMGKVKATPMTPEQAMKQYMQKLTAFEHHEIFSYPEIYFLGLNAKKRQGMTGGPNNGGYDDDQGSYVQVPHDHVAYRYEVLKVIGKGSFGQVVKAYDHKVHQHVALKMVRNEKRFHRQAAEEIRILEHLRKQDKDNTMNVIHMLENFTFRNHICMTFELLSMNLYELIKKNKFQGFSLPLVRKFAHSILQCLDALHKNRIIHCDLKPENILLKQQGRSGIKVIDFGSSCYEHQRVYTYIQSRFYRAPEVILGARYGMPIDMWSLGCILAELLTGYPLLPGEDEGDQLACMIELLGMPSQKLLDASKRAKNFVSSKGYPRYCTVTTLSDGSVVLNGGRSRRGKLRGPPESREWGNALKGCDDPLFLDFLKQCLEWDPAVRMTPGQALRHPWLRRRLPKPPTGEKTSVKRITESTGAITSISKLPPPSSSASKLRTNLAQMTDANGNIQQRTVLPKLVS
As to the kind of experiment: Kinase profiling. It is filed as biochemical.

Experiment [5] deals with MDA-MB-231 human breast cancer cells. As to the kind of experiment: Cell cycle analysis (DNA content, flow cytometry). Format: cell-based. To be noted: GI50 concentration; FIG. 1. As to the method:
FIG. 1 depicts DNA content profiles of MDA-MB-231 human breast cancer cells treated with subject compounds or commercial CDK inhibitors, showing the percentage of cells at the different cell cycle phases after 48 hours of the treatments indicated. (n=6 technical replicates).
Cells were collected by trypsinization, washed with PBS and fixed with cold 70% ethanol. Cells were treated with 250 μg/ml RNase (Qiagen) for 30 minutes at 37° C. and stained with 10 μg/ml Propidium Iodide (Sigma). Cell cycle was analyzed by flow cytometry using a LSR Fortessa Analyzer. Cell cycle profiles were generated and analyzed with FlowJo software.
Cells were collected by tripsinization at several times after treatment with the indicated compounds and, then, fixed with cold 70% Ethanol. DNA content was determined by staining with propidium iodide (10 μg/ml, Sigma Aldrich). Data acquisition was performed with a LSR Fortessa analyzer (BD Biosciences) and analysed using FlowJo software.
(Flow cytometry measures light scatter and fluorescence of single cells or particles in a stream.)

The next experiment addresses CDK5/p35NCK (Homo sapiens, UniProt Q00535). As to the kind of experiment: Kinase profiling. To be noted: 10 semi-logarithmic dilutions from 50 μM, singlicate. It is filed as biochemical.
A further experiment concerns the target CDK5/p25NCK (Homo sapiens, UniProt Q00535). As to the kind of experiment: Kinase profiling. It is filed as biochemical. As to conditions: 10 semi-logarithmic dilutions from 50 μM, singlicate.
The target of a further experiment is PCTAIRE1/CycY (Homo sapiens, UniProt Q00536). In words: Kinase profiling. It is filed as biochemical. To be noted: 10 semi-logarithmic dilutions from 50 μM, singlicate.
The target in another experiment is CDK7/CycH/MAT1 (Homo sapiens, UniProt P50613). In words: Kinase profiling. It is filed as biochemical. As to conditions: 10 semi-logarithmic dilutions from 50 μM, singlicate.
The next experiment concerns the target PIM1 (Homo sapiens, UniProt P11309). As to the kind of experiment: Kinase profiling. As to conditions: 10 semi-logarithmic dilutions from 50 μM, singlicate. Format: biochemical.
Where [6] appears, read: 10 semi-logarithmic dilutions from 50 μM, singlicate, read-out: IC50 CDC7/DBF4.
[7] abbreviates: 10 semi-logarithmic dilutions from 50 μM, singlicate, read-out: IC50 HIPK2.

Where two headings read alike, the source gives them in different places.

HIPK2, sequence (Q9H2X6 whole entry): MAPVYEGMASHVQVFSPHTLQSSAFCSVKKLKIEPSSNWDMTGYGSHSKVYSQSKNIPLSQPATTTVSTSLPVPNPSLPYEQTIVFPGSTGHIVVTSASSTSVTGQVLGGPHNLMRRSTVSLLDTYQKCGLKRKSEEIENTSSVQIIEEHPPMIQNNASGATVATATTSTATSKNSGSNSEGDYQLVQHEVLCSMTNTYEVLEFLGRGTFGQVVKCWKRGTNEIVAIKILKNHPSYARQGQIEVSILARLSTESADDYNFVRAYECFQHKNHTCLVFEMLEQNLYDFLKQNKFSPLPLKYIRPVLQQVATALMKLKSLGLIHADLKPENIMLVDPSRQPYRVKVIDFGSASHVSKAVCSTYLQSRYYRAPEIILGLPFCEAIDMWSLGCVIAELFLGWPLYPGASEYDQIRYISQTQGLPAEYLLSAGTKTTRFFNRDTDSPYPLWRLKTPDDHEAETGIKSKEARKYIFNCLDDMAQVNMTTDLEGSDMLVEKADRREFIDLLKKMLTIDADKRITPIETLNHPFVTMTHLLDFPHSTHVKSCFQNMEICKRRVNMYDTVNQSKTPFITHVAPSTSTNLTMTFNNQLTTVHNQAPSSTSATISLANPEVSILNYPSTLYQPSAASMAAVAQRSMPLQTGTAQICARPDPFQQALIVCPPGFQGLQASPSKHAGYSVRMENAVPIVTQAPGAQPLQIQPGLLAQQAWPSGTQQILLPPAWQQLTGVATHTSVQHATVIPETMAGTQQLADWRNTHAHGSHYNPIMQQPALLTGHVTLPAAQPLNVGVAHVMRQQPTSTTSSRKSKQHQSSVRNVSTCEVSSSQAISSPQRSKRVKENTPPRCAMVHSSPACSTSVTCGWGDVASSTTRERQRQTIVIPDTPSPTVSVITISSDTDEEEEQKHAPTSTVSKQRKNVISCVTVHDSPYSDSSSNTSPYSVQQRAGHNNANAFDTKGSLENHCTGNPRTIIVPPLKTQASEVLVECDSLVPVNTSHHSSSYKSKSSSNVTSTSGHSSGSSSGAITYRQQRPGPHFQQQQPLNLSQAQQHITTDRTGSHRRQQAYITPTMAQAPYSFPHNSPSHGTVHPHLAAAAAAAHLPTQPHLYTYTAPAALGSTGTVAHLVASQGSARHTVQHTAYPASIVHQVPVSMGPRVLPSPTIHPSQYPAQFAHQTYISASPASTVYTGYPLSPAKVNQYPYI
CDC7/DBF4, sequence (O00311 whole entry): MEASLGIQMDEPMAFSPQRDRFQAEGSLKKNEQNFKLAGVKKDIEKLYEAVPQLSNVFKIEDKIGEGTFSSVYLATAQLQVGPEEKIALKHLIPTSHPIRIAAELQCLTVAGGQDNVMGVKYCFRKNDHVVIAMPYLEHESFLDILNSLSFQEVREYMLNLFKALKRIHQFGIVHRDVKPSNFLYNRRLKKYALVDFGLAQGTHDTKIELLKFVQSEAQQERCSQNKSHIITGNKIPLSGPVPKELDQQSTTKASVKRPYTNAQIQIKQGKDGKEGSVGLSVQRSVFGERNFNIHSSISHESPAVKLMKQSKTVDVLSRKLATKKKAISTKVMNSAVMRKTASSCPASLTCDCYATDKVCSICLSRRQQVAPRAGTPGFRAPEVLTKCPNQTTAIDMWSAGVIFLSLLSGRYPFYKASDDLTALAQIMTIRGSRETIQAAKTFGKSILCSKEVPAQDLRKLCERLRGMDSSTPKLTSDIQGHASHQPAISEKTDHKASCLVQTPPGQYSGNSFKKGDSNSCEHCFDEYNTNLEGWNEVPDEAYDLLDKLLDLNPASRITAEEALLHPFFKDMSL
CDC7/DBF4, sequence (Q9UBU7 whole entry partner): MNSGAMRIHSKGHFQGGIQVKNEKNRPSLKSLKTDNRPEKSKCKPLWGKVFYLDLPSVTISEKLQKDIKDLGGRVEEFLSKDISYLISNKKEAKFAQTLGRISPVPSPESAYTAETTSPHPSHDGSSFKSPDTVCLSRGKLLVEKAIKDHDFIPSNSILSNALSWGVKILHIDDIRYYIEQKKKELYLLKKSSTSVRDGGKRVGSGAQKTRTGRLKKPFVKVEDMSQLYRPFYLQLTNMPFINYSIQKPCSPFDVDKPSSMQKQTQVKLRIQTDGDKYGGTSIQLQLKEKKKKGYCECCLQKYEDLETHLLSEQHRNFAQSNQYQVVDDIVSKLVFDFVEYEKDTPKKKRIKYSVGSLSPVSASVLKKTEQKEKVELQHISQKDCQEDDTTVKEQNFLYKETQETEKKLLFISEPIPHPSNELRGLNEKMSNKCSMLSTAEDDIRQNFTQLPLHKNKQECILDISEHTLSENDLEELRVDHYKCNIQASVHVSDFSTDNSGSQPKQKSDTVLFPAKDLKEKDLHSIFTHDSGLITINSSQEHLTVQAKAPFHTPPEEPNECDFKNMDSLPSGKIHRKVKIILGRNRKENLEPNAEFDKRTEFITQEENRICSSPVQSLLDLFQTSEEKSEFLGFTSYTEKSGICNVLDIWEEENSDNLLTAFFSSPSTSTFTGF
CDK12wt/CycK, sequence (Q9NYV4 whole entry): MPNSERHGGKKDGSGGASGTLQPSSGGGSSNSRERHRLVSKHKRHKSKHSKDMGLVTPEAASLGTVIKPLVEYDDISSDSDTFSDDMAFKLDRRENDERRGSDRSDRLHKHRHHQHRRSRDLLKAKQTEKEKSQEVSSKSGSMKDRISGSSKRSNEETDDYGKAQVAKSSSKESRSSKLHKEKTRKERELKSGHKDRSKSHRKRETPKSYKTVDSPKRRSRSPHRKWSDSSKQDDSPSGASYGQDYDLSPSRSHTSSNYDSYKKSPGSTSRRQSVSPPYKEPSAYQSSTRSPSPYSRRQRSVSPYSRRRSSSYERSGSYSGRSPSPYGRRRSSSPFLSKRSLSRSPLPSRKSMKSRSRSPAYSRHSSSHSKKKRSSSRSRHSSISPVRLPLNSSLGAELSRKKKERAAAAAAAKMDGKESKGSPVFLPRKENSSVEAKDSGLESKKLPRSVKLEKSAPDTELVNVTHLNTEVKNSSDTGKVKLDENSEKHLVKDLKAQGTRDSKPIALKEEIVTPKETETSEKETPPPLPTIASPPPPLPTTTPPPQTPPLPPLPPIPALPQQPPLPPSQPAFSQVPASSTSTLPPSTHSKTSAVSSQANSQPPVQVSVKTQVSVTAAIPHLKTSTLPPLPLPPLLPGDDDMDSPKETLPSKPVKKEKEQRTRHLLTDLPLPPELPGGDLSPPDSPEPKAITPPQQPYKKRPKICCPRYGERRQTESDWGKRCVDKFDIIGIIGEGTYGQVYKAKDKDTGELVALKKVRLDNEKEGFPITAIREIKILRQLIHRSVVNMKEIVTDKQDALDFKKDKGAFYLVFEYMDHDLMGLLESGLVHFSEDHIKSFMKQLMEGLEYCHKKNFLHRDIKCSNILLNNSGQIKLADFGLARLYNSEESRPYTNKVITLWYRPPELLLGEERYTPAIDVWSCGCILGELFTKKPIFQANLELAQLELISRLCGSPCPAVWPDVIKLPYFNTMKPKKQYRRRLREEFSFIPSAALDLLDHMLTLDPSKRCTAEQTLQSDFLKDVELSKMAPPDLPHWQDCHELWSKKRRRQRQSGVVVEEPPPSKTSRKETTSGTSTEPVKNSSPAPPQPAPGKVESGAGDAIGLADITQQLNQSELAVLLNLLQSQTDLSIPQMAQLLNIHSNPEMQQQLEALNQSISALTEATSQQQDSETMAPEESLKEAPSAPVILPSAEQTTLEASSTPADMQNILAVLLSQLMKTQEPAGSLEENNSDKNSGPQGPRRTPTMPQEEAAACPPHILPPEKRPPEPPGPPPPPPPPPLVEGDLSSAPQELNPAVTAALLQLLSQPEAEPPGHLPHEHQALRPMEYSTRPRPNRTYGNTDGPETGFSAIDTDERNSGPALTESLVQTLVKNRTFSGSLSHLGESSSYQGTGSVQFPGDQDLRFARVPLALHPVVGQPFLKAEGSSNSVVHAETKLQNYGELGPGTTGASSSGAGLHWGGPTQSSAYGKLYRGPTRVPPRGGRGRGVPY
CDK12wt/CycK, sequence (O75909 whole entry partner): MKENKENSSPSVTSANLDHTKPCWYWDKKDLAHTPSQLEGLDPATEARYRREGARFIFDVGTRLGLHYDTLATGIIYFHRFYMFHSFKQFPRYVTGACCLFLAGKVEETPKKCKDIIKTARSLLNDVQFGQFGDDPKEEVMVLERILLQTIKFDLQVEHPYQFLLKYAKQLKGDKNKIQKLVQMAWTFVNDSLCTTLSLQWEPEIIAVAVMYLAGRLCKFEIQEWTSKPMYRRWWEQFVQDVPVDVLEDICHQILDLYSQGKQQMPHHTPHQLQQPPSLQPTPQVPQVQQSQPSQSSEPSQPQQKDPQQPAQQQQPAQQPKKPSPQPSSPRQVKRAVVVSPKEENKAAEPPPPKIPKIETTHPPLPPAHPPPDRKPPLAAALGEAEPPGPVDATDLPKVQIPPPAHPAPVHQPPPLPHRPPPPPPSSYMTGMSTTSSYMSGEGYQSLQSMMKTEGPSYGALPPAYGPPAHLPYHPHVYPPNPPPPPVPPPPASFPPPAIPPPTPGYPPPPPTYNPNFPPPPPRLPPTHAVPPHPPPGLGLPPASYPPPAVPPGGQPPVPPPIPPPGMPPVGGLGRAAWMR
ERK1, sequence (P27361 whole entry): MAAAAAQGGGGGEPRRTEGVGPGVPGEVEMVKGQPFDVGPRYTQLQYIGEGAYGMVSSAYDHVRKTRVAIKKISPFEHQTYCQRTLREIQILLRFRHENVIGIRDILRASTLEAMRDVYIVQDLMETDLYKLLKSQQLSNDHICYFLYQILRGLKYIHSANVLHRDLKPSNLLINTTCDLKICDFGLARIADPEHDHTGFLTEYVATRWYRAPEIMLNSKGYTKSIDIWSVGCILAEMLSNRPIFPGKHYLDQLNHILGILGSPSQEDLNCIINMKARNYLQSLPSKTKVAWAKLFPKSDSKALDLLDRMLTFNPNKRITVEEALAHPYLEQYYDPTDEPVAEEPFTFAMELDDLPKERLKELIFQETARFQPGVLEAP

For the compound `CCN1CCN(Cc2ccc(Nc3ncc(F)c(-c4cc(F)c5nc(C)n(C(C)C)c5c4)n3)nc2)CC1` [Abemaciclib, reference compound], the IC50 on CDC7/DBF4 (setting [6]) is above 50 µM; against ERK1 it was above 50 µM; on HIPK2 (setting [7]), 46.4 µM; against CDK19/CycC, above 50000 nM; against CDK12wt/CycK, 21 µM; on CDK8/CycC, above 50000 nM. Also, the IC50 was 49.7 µM on CDK3/CycC, above 50000 nM against CDK3/CycE1 and above 50 µM against AKT1 aa1-480. The GI50 in [1] (Homo sapiens, MCF10) stood at 1240 nM; in experiment [2] (Homo sapiens, MDA-MB-231) it was 1500 nM; in experiment [3] (Homo sapiens, NCI-H460), 3.1 µM; in [4] (Homo sapiens, U-87 MG), 470 nM.
For the compound `O=C1NC(=NCc2cccs2)S/C1=C\c1ccc2ncccc2c1` [RO-3306, reference compound], the GI50 in experiment [1] is 2800 nM; in experiment [2], 3200 nM; in [3], 25.6 µM; in [4], above 50000 nM.
On to `CN(C)C(=O)c1cc2cnc(Nc3ccc(N4CCNCC4)cn3)nc2n1C1CCCC1` [Ribociclib, reference compound], for which the IC50 on CDC7/DBF4 (setting [6]) was 0.318 µM; at ERK1, above 50 µM; at DYRK1A, 14.5 nM; on DYRK2 (10 semi-logarithmic dilutions from 50 μM, singlicate, read-out: IC50 DYRK2), 0.0139 µM; on HIPK2 (setting [7]), 0.0397 µM; at CDK19/CycC it was 362 nM. The IC50 against CDK12wt/CycK worked out at 0.495 µM; against CDK5/p35NCK, 641 nM; on CDK5/p25NCK it was 2190 nM; against PCTAIRE1/CycY it was 589 nM; on CDK8/CycC it was 2020 nM; at CDK7/CycH/MAT1, 7.35 µM. Moreover, the IC50 against CDK3/CycC was 0.323 µM; at CDK3/CycE1, 1660 nM; at AKT1 aa1-480, above 50 µM; at PIM1, 24.4 nM. The “cell cycle arrest by DNA content” value in experiment [5] is “robust G0/G1-phase arrest”. Further, the GI50 in experiment [1] (Homo sapiens, MCF10) was determined as 540 nM; in [2] (Homo sapiens, MDA-MB-231) it was 700 nM; in experiment [3] (Homo sapiens, NCI-H460), 1.47 µM; in experiment [4] (Homo sapiens, U-87 MG) it was 260 nM.
Consider `CC[C@H](CO)Nc1nc(NCc2ccccc2)c2ncn(C(C)C)c2n1` [Roscovitine, reference compound], for which the IC50 at CDC7/DBF4 is 42.1 µM; against DYRK2, 38.1 µM; on HIPK2 it was above 50 µM.

By GI50 is commonly meant the concentration giving 50% growth inhibition.

These data come from patent US20230042936A1, “PYRIDO[2,3-d]PYRIMIDIN-7(8H)-ONES AS CDK INHIBITORS” (PROSENESTAR LLC, priority 2020, published 2023).
